{
  "source": "patent US20120231470A1",
  "about": "“METHODS AND SYSTEMS ASSOCIATED WITH DETECTION OF FATTY ACID ELONGATION IN A CELL” (priority 2011, published 2012)",
  "key": {"[1]": {"tested_on": "fatty acid biosynthesis in B392 cells", "assay": "High-throughput 96-well screen for fatty acid biosynthesis inhibitors", "type": "cell-based, Vibrio harveyi", "settings": "B392, 96-well plate; for Detection as fatty acid biosynthesis inhibitor in the high-throughput screen: FIG. 6; for Fluorescence ratio between non-treated cells and drug treated cells: C6N3 5 mM overnight, final drug concentrations 500, 50 or 5 μM, cerulenin at sub-bacteriostatic concentration", "description": "In this example, a high-throughput cell-based antibiotic screen, which would identify fatty acid biosynthesis inhibitors, was implemented. B392 cells in a 96-well plate were treated with various concentrations of commercially available fatty acid biosynthesis inhibitors, including cerulenin (Ref. 8), bischloroanthrabenzoxocinone (Ref. 10), thiolactomycin (Ref. 11), and platensimycin (Ref. 2) as well as a number of arbitrarily chosen drugs (listed in TABLE 3).\nIn TABLE 3 above, rows of the 96-well plate are indicated by a letter and the columns are indicated by a number. Antibiotics labeled with a *, the wells contain 200× stocks of 10 mM and 1 mM of antibiotic in descending order. For bischloroanthrabenzoxocinone, thiolactomycin, and platensimycin, the wells only contain 200× stocks of 1 mM of antibiotic. For other antibiotics, the wells contain 200× stocks of 100 mM, 10 mM, and 1 mM of antibiotic in descending order.\nB392 cells given no drug treatment served as the control. Cells were then fed with C6N3 and allowed to grow overnight. Extracellular C6N3 was washed away with 0.9% NaCl three times, and cellular lipids were click-reacted with 50 μM cyclooctyne-coumarin conjugate for 30 minutes at 37° C. Non-reacted cyclooctyne-coumarin conjugate was washed away with 0.9% NaCl three times, and cells were re-suspended in 0.9% NaCl to be analyzed by plate reader. […]. It should be noted that the same method described here in Example 3 can be used to identify compounds which enhance fatty acid biosynthesis. […].\nIn particular, B392 cells were grown in 150 mL cultures of synthetic media (Ref. 9) until OD 0.3 was reached. Cells were transferred (1 mL of the culture loaded into each well) to a 2 mL 96-well plate via a multi-pipette robot (this robot was used for most liquid transfers mentioned in this example). To each well, 5 μL of antibiotic from a 200× stock antibiotic plate in DMSO (TABLE 3) was introduced to create final treatment concentrations of 500 μM, 50 μM, and 5 μM. After 30 minutes, 10 μL of 500 mM C6N3 in DMSO was introduced to each well for a final treatment concentration of 5 mM. Cells were grown overnight, then spun down at 2000 g for 10 minutes. Supernatant was removed, and then non-incorporated C6N3 was washed from cells three times by re-suspending the cells in 1 mL of 0.9% NaCl, spinning the cells down at 2000 g for 10 minutes, and removing the supernatant. The cells were re-suspended in 200 μL of 50 μM cyclooctyne-coumarin conjugate in 0.9% NaCl and incubated at 37° C. for 30 minutes. Cells were collected and washed three more times with 1 mL of 0.9% NaCl to remove non-reacted cyclooctyne-coumarin conjugate, and cells re-suspended in 400 μL of 0.9% NaCl were analyzed by plate reader for fluorescence (excitation 380 nm, detection 500 nm) and cell density."}, "[2]": {"settings": "known (Ref 10); cited from earlier work"}, "[3]": {"tested_on": "fatty acid elongation in V. harveyi strain CY1723", "assay": "C6N3 incorporation/elongation assay, cyclooctyne-coumarin labeling, plate reader", "type": "cell-based, Vibrio harveyi", "settings": "C6N3 5 mM + cerulenin 10 μg/mL", "description": "(§1) In particular, the cells were grown in 5 mL of synthetic media (Ref 9), and at OD 0.2, cerulenin was introduced to appropriate samples for a final treatment concentration of 10 μg/mL (sub-bacteriostatic). Then, at OD 0.3, C6N3 was introduced to appropriate samples for a final treatment concentration of 5 mM. After allowing the cells to grow in presence of C6N3 for 5 hours, the cells were spun down at 5000 g for 10 minutes, and the supernatant was removed. Non-incorporated C6N3 was washed from cells three times by re-suspending the cell pellet in 10 mL of 0.9% NaCl, spinning the cells down at 5000 g for 10 minutes, and removing the supernatant. […] The cells were re-suspended in 1 mL of 50 μM cyclooctyne-coumarin conjugate in 0.9% NaCl and incubated at 37° C. for 30 minutes. Cells were collected and washed three more times with 10 mL of 0.9% NaCl to remove non-reacted cyclooctyne-coumarin conjugate, and a fraction of the cells re-suspended in 2 mL of 0.9% NaCl were analyzed by plate reader (excitation 380 nm, detection 500 nm) or flow cytometry (excitation 407 nm, detection 450/40 bandpass filter).\nIn particular, the cells were grown in 5 mL of synthetic media (Ref 9), and at OD 0.2, cerulenin was introduced to appropriate samples for a final treatment concentration of 10 μg/mL (sub-bacteriostatic). […]"}, "[4]": {"tested_on": "fatty acid elongation in Vibrio harveyi strain B392", "assay": "C6N3 incorporation/elongation assay, cyclooctyne-coumarin labeling, plate reader", "type": "cell-based", "description": "as §1\n(§2) In particular, the cells were grown in 5 mL of synthetic media (Ref 9), and at OD 0.2, cerulenin was introduced to appropriate samples for a final treatment concentration of 10 μg/mL (sub-bacteriostatic). Then, at OD 0.3, C6N3 was introduced to appropriate samples for a final treatment concentration of 5 mM. After allowing the cells to grow in presence of C6N3 for 5 hours, the cells were spun down at 5000 g for 10 minutes, and the supernatant was removed. Non-incorporated C6N3 was washed from cells three times by re-suspending the cell pellet in 10 mL of 0.9% NaCl, spinning the cells down at 5000 g for 10 minutes, and removing the supernatant. The cells were re-suspended in 1 mL of 50 μM cyclooctyne-coumarin conjugate in 0.9% NaCl and incubated at 37° C. for 30 minutes. Cells were collected and washed three more times with 10 mL of 0.9% NaCl to remove non-reacted cyclooctyne-coumarin conjugate, and cells re-suspended in 2 mL of 0.9% NaCl were analyzed by plate reader (excitation 380 nm, detection 500 nm) or flow cytometry (excitation 407 nm, detection 450/40 bandpass filter)."}, "[5]": {"tested_on": "fatty acid elongation in V. harveyi B392", "assay": "C6N3 incorporation/elongation assay, cyclooctyne-coumarin labeling, flow cytometry", "type": "cell-based, Vibrio harveyi", "settings": "C6N3 5 mM + cerulenin 10 μg/mL", "description": "as §2\n(§3) In addition, the samples were analyzed by flow cytometry (FIG. 4)"}, "[6]": {"tested_on": "fatty acid elongation in V. harveyi CY1723", "assay": "C6N3 incorporation/elongation assay, cyclooctyne-coumarin labeling, flow cytometry", "type": "cell-based, Vibrio harveyi", "settings": "C6N3 5 mM + cerulenin 10 μg/mL", "description": "as §2, §3"}},
  "data": [
    {"smiles": "COc1cc(C)c2c(c1)O[C@]1(C)Cc3cc4c(c(O)c3[C@H]2O1)C(=O)c1c(O)c(Cl)c(O)c(Cl)c1C4(C)C", "note": "[Bischloroanthrabenzoxocinone]", "values": [
      {"measurement": "Detection as fatty acid biosynthesis inhibitor in the high-throughput screen", "setting": "[1]", "result": "not detected"},
      {"measurement": "Cell permeability", "setting": "[2]", "result": "poor cell permeability"}
    ]},
    {"smiles": "C/C=C/C/C=C/CCC(=O)[C@H]1O[C@H]1C(N)=O", "note": "[cerulenin, Cerulenin]", "values": [
      {"measurement": "Ratio (fluorescence/OD of Entry 1 divided by fluorescence/OD of the sample)", "setting": "[3]", "result": 11.99},
      {"measurement": "Fluorescence/OD", "setting": "[3]; 5 hours", "result": 44069},
      {"measurement": "Fluorescence/OD", "setting": "[4]; B392, C6N3 5 mM + cerulenin 10 μg/mL, 5 hours, plate reader", "result": 45609},
      {"measurement": "Ratio (fluorescence/OD of Entry 1 divided by fluorescence/OD of the sample)", "setting": "[4]; B392, C6N3 5 mM + cerulenin 10 μg/mL, plate reader", "result": 11.58},
      {"measurement": "Fold decrease in fluorescence of cerulenin-treated culture compared to the same culture untreated", "setting": "[4]; B392, C6N3 5 mM, cerulenin 10 μg/mL, FIG. 3", "result": "about seven-fold"},
      {"measurement": "Inhibition of fatty acid biosynthesis / azide incorporation in lipids", "setting": "[4]; B392 and CY1723 cells treated with C6N3 and cerulenin, TABLES 1 and 2", "result": "inhibited fatty acid biosynthesis efficiently"},
      {"measurement": "Mean fluorescence", "setting": "[5]", "result": 2347},
      {"measurement": "Ratio (mean fluorescence of Entry 1 divided by mean fluorescence of the sample)", "setting": "[5]", "result": 8.06},
      {"measurement": "Mean fluorescence", "setting": "[6]", "result": 1704},
      {"measurement": "Ratio (mean fluorescence of Entry 1 divided by mean fluorescence of the sample)", "setting": "[6]", "result": 11.09},
      {"measurement": "Fluorescence ratio between non-treated cells and drug treated cells", "setting": "[1]", "result": "~4.5"},
      {"measurement": "Detection as fatty acid biosynthesis inhibitor in the high-throughput screen", "setting": "[1]", "result": "can be detected"}
    ]},
    {"smiles": "CC12C[C@@]34C=CC(=O)[C@@](C)(CCC(=O)Nc5c(O)ccc(C(=O)O)c5O)C3[C@H](CC1C4)O2", "note": "(stereo partly drawn) [platensimycin, Platensimycin]", "values": [
      {"measurement": "Fluorescence ratio between non-treated cells and drug treated cells", "setting": "[1]", "result": "~2.6"},
      {"measurement": "Detection as fatty acid biosynthesis inhibitor in the high-throughput screen", "setting": "[1]", "result": "can be detected"}
    ]},
    {"smiles": "C=C/C(C)=C/[C@@]1(C)SC(=O)C(C)=C1O", "note": "[thiolactomycin, Thiolactomycin]", "values": [
      {"measurement": "Fluorescence ratio between non-treated cells and drug treated cells", "setting": "[1]", "result": "~4.0"},
      {"measurement": "Detection as fatty acid biosynthesis inhibitor in the high-throughput screen", "setting": "[1]", "result": "can be detected"}
    ]}
  ]
}
